The source of these data is patent US12421253B2 (Mirati Therapeutics, Inc., priority 2020, dated 2025).

One test deals with T1, KRas^G12A (Homo sapiens, UniProt P01116, G12A).
T1 construct: […]; biotin (biotinylated); purchased Accelegan Inc
As to the kind of experiment: KRas binding assay (TR-FRET displacement of Cy5 labelled tracer). (TR-FRET usually uses a lanthanide donor and a delayed reading to cut background.)

For a further test, the target named is KRas^G12C (Homo sapiens, UniProt P01116, G12C). Kind of test: biochemical.
Another test concerns the target T2, KRas^G12R (Homo sapiens, UniProt P01116, G12R).
T2 construct: […]; biotin (biotinylated); purchased Accelegan Inc
As to the kind of experiment: KRas binding assay (TR-FRET displacement of Cy5 labelled tracer).

Another test deals with KRas^G13D (Homo sapiens, UniProt P01116, G13D). As to the kind of experiment: biochemical.
In a further test the target is T3, KRas^G12V (Homo sapiens, UniProt P01116, G12V).
T3 construct: […]; biotin (biotinylated); purchased Accelegan Inc
Kind of test: KRas binding assay (TR-FRET displacement of Cy5 labelled tracer).

The test system of test [1] is PSN-1 (G12R) cells, phospho-ERK. As to the kind of experiment: Inhibition of KRas-mediated phosphorylation of ERK (phospho-ERK/GAPDH antibody detection, LI-COR). It is filed as cell-based. The following applies: Homo sapiens, PSN1, 3 hours. Summed up: (§1)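 Cells seeded 20,000/well, attached 12-14 h, then compound (0.5% DMSO) for 3 h. Formaldehyde-fixed, methanol-permeabilized cells stained for phospho-ERK (Thr202/Tyr204) and GAPDH; infrared imaging. Ratio expressed as % of DMSO control; IC50 from 4-parameter fit.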

The subject of test [2] is NCI-H460 (Q61H) cells, phospho-ERK. Described as above. The following applies: Homo sapiens, 3 hours. In kind it is cell-based. In short, it runs like this: as §1
Test [3] has as its system A549 (G12S) cells, phospho-ERK. Described as above. It is filed as cell-based. The following applies: Homo sapiens, 3 hours. In short, it runs like this:
as §1

For test [4], the system named is HCT116 (G13D) cells, phospho-ERK. Described as above. In kind it is cell-based. The following applies: Homo sapiens, HCT-116, 3 hours. In short, it runs like this: as §1
Test [5] relates to NCI-H358 (G12C) cells, phospho-ERK. The description is as above. In kind it is cell-based. The following applies: Homo sapiens, 3 hours. Summed up: as §1
Test [6] deals with AsPC-1 (G12D) cells, phospho-ERK. The description is as above. The following applies: Homo sapiens, ASPC1, 3 hours. It is filed as cell-based. In short, it runs like this: as §1
In test [7] the test system is NCI-H727 (G12V) cells, phospho-ERK. The description is as above. It is filed as cell-based. The following applies: Homo sapiens, 3 hours. In short, it runs like this:
as §1

The next test concerns the target T4, KRas^G12S (Homo sapiens, UniProt P01116, G12S).
T4 construct: […]; biotin (biotinylated); purchased Accelegan Inc
As to the kind of experiment: KRas binding assay (TR-FRET displacement of Cy5 labelled tracer).

For another test, the system named is H460 cells, pERK. Kind of test: Inhibition of KRas phosphorylation of ERK (Cisbio HTRF Advanced pERK assay). The following applies: Homo sapiens, NCI-H460, 3 hrs, read-out: Inhibition (HTRF IC50 nM) of KRas-mediated Phosphorylation of ERK, H460. It is filed as cell-based. In short, it runs like this: (§2)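 Cells were seeded overnight in RPMI with 10% FBS, then treated for 3 h at 37 °C with 10-dose, 3-fold compound titrations from 10 uM (0.8% DMSO final). After lysis at 4 °C, phospho-ERK was quantified by HTRF using d2- and cryptate-labelled antibodies; 0.2 uM trametinib served as minimum control.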

The subject of another test is ASPC1 cells, pERK. The test is described as above. In kind it is cell-based. The following applies: Homo sapiens, ASPC1, 3 h, AsPC-1 cells, read-out: Inhibition (HTRF IC50 nM) of KRas-mediated Phosphorylation of ERK, AsPC-1. In short, it runs like this: as §2
The subject of a further test is H727 cells, pERK. Described as above. It is filed as cell-based. The following applies: Homo sapiens, NCI-H727, 3 h, read-out: Inhibition (HTRF IC50 nM) of KRas-mediated Phosphorylation of ERK, H727. In short, it runs like this: as §2
For another test, the system named is HCT116 cells, pERK. The description is as above. It is filed as cell-based. The following applies: Homo sapiens, HCT-116, 3 hrs, read-out: Inhibition (HTRF IC50 nM) of KRas-mediated Phosphorylation of ERK, HCT116. Summed up: as §2
The test system of another test is A549 cells, pERK. Described as above. In kind it is cell-based. The following applies: Homo sapiens, 3 hrs, read-out: Inhibition (HTRF IC50 nM) of KRas-mediated Phosphorylation of ERK, A549. In short, it runs like this: as §2
A further test has as its target T5, KRas^G12D (Homo sapiens, UniProt P01116, G12D).
T5 construct: […]; biotin (biotinylated); purchased Accelegan Inc
Kind of test: KRas binding assay (TR-FRET displacement of Cy5 labelled tracer).

Another test deals with KRas^Q61H (Homo sapiens, UniProt P01116, Q61H). Kind of test: biochemical.
The target in another test is T6, KRas^WT (Homo sapiens, UniProt P01116).
T6 construct: […]; biotin (biotinylated); purchased Accelegan Inc
Kind of test: KRas binding assay (TR-FRET displacement of Cy5 labelled tracer).

Structures are written as SMILES. Where only a bound is given, the exact number is not on record here.

T2 sequence (P01116 1-169 isoform P01116-2 G12R): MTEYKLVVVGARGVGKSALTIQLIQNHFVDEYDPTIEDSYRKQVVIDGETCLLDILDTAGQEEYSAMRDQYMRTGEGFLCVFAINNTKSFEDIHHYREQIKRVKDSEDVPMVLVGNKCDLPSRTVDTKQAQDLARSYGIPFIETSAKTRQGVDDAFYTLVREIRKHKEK
Chain of KRas^Q61H (P01116 1-169 isoform P01116-2 Q61H): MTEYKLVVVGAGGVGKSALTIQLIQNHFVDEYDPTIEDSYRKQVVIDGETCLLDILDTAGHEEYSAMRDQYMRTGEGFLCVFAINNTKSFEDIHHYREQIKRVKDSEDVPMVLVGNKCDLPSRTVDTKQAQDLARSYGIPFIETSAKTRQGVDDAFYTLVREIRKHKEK
T6 sequence (P01116 1-169 isoform P01116-2): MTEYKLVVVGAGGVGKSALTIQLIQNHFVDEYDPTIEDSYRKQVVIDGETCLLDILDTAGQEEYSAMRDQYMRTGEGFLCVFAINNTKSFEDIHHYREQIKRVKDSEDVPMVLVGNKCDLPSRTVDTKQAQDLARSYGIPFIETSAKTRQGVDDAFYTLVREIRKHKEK
Chain of KRas^G12C (P01116 1-169 isoform P01116-2 G12C): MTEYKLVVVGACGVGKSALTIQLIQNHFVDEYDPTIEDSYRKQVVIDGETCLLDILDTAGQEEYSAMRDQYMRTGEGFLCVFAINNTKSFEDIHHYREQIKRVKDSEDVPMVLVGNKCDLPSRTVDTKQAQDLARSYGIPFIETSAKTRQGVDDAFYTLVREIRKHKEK
T4 sequence (P01116 1-169 isoform P01116-2 G12S): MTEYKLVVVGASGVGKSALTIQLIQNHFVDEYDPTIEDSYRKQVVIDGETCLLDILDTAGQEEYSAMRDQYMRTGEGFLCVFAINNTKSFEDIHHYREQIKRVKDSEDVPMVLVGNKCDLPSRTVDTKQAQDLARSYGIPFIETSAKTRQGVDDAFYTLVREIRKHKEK
T1 sequence (P01116 1-169 isoform P01116-2 G12A): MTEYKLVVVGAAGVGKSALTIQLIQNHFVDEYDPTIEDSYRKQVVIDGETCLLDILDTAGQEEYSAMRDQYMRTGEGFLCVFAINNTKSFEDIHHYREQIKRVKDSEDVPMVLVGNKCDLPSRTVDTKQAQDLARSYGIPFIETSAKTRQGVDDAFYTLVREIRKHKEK
T5 sequence (P01116 1-169 isoform P01116-2 G12D): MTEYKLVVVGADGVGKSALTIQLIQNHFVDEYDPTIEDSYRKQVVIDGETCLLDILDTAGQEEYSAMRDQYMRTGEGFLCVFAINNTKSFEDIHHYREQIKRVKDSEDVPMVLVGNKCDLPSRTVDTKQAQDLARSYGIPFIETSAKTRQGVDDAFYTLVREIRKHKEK
Chain of KRas^G13D (P01116 1-169 isoform P01116-2 G13D): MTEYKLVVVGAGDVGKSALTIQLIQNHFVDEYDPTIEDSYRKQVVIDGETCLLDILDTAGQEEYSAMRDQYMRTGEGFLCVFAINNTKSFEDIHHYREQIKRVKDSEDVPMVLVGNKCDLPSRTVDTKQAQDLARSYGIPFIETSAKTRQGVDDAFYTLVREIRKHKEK
T3 sequence (P01116 1-169 isoform P01116-2 G12V): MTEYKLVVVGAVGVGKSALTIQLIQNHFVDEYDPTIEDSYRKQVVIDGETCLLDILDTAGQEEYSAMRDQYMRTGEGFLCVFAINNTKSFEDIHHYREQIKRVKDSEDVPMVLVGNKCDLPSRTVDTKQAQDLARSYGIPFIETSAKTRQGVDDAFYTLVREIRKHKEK
Description for KRas^G12A: (§3) The ability of a compound to bind to KRas was measured using a TR-FRET displacement assay. […] After a 60-minute incubation at room temperature, the reaction was measured using a BMG LABTECH CLARIO star Plus via TR-FRET. […] The POC values were fit to a 4-parameter IC50 equation and the IC50 value reported.
Description for KRas^G12C: as §3
Description for KRas^G12D: as §3
Description for KRas^G12R: as §3
Description for KRas^G12S: as §3
Description for KRas^G12V: as §3
Description for KRas^G13D: as §3
Description for KRas^Q61H: as §3
Description for KRas^WT: as §3

In the case of `CCc1c(F)ccc2cc(O)cc(N3CCc4c(nc(OC[C@@]56CCCN5C[C@H](F)C6)nc4N4CCC[C@@](C)(O)C4)C3)c12` [Example 2, (R)-1-(7-(8-ethyl-7-fluoro-3-hydroxynaphthalen-1-yl)-2-(((2R,7aS)-2-fluorohexahydro-1H-pyrrolizin-7a-yl)methoxy)-5,6,7,8-tetrahydropyrido[3,4-d]pyrimidin-4-yl)-3-methylpiperidin-3-ol], the IC50 (as a rule, the point on the concentration scale where inhibition reaches its midpoint) was no more than 2 nM at KRas^G12A; no more than 2 nM at KRas^G12C; no more than 2 nM at KRas^G12R; 52 nM against KRas^G13D; no more than 2 nM at KRas^G12V; 3530 nM in test [1]. Also, the IC50 worked out at 184 nM in test [2]; 241 nM in test [3]; 863 nM in test [4]; 252 nM in [5]; 280 nM in test [6]; 798 nM in [7]. In addition, the IC50 is no more than 2 nM on KRas^G12S; 146 nM in the test with H460 cells, pERK; 29 nM in the test on ASPC1 cells, pERK; 315 nM in the test with H727 cells, pERK; 426 nM with HCT116 cells, pERK; 144 nM in the test on A549 cells, pERK. For the same compound, the IC50 at KRas^G12D, at KRas^Q61H and at KRas^WT was no more than 2 nM in each case.
